Reference: PubChem BioAssay (NCI)
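In this assay, cells in 96-well plates receive the compound at five concentrations for 48 hours. Endpoints are linearly interpolated between the surrounding concentrations. TGI: total growth inhibition.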

Legend:
Assay in all cases: NCI tumour cell line growth inhibition, 48 h
MDA-MB-231 breast = test system: MDA-MB-231 breast
SK-MEL-28 melanoma = test system: SK-MEL-28 melanoma
KM12 colon = test system: KM12 colon
HL-60(TB) leukemia = test system: HL-60(TB) leukemia
A498 renal = test system: A498 renal
MDA-N = test system: MDA-N
M14 melanoma = test system: M14 melanoma
IGROV1 ovarian = test system: IGROV1 ovarian
OVCAR-5 ovarian = test system: OVCAR-5 ovarian
SK-MEL-5 melanoma = test system: SK-MEL-5 melanoma
LOX IMVI melanoma = test system: LOX IMVI melanoma
HCC-2998 colon = test system: HCC-2998 colon
ACHN renal = test system: ACHN renal
MOLT-4 leukemia = test system: MOLT-4 leukemia
UACC-257 melanoma = test system: UACC-257 melanoma
SN12C renal = test system: SN12C renal
HS 578T breast = test system: HS 578T breast
NCI/ADR-RES ovarian = test system: NCI/ADR-RES ovarian

SMILES	TGI (MDA-MB-231 breast) [µM]	TGI (SK-MEL-28 melanoma) [µM]	TGI (KM12 colon) [µM]	TGI (HL-60(TB) leukemia) [µM]	TGI (A498 renal) [µM]	TGI (MDA-N) [µM]	TGI (M14 melanoma) [µM]	TGI (IGROV1 ovarian) [µM]	TGI (OVCAR-5 ovarian) [µM]	TGI (SK-MEL-5 melanoma) [µM]	TGI (LOX IMVI melanoma) [µM]	TGI (HCC-2998 colon) [µM]	TGI (ACHN renal) [µM]	TGI (MOLT-4 leukemia) [µM]	TGI (UACC-257 melanoma) [µM]	TGI (SN12C renal) [µM]	TGI (HS 578T breast) [µM]	TGI (NCI/ADR-RES ovarian) [µM]
c1ccc(COc2nc3ccc(C45CC6CC(CC(C6)C4)C5)cc3[nH]2)cc1	> 80.9	> 100	> 100	43.7	> 100	97	98.4	> 100	> 100	14.6	36.5	56.4	> 100	> 66.7	> 26.4	> 100	> 75.7	> 54.4
C=C(C)C1CC2=C(C(=O)OC)C=C(O2)C(C(=C)C)[C@@H]2OC(=O)/C(=C\C1O)[C@H]2N(C)C (stereo not given in full)	43.8	27.8	28	> 24.2	31.3	25.8	29.7	20.9	38	27.9	24.2	29	24	> 22.7	37.1	28.5	44.2	26
CCOC(=O)c1cc(-c2ccc(OC)c(OC)c2)cn1C	> 10	> 10	> 10	> 10	> 10	> 10	> 10	> 10	> 10	> 10	> 10	> 10	> 10	> 10	> 10	> 10	> 10	> 10
O=[N+]([O-])c1ccccc1S(=O)(=O)N1CCCc2cc(Cl)ccc21	> 100	> 100	> 83.9	72.2	76.1	> 48.2	> 100	> 100	> 100	> 100	> 100	> 100	> 100	> 100	> 96.1	> 100	> 100	> 89.1
CCN(CC)P1(=S)Oc2ccc3ccccc3c2-c2c(ccc3ccccc23)O1	> 100	> 100	> 100	> 100	> 100	> 100	> 100	> 100	> 100	> 100	> 100	> 100	> 100	> 100	> 100	> 100	> 100	> 100
OC1(c2ccc(Cl)cc2)c2ccccc2C2=Nc3ccccc3CN21 (stereo not given)	> 100	98.3	> 75.4	> 75.5	> 72.9	> 100	> 100	> 81.3	> 100	> 100	> 100	> 100	28.6	> 100	> 100	> 79.6	74.1	98.8
CCOC(=O)C1(C(=O)OCC)C[C@H]2CON=C2[C@@H]1c1ccc(C(F)(F)F)cc1	> 100	> 100	> 100	> 100	99.3	> 100	> 100	28.9	> 100	> 100	32.4	87.4	34.4	> 100	> 100	> 100	> 100	> 100
CC1(c2cccc(C3CCC4(C=CC3=O)OCCO4)c2)OCCO1 (stereo not given)	26	29.6	33.4	20	33.5	25.2	20.1	32.7	32.2	28	27.8	33.1	15.5	12	21.5	27.7	41.8	31.5
COc1ccccc1NC(=S)N/N=C(/c1ccccc1)c1ccccn1	11.4	23.9	14	2.18	12.5	21.5	9.52	17.6	13.2	6.44	15.7	29.1	11.8	0.403	1.13	16.7	53.9	11.3
Cc1cn2c(/C=C3/C(=O)Nc4ccccc43)c(-c3ccccc3)nc2s1	57.7	> 100	> 100	> 100	> 100	> 100	> 100	> 100	> 100	> 100	> 100	> 100	> 100	> 100	> 100	> 100	91	> 100
